Laboratory results reported in article PMC6136660 (Steroids, 2018).

Test system: white blood cells and subsets (lymphocytes, neutrophils, eosinophils)
Experiment: Differential white blood cell counts (immune suppression), MAD
Assay type: in vivo, human
Details: for Eosinophils: mean; for Lymphocytes / Neutrophil cell counts / White blood cells counts: mean±SEM, in 10^9/L (unit assumed)
Method: A single dose of pharmacological glucocorticoids results in rapid changes in peripheral blood white cell counts, with increased neutrophils, and decreased lymphocytes. Increases of neutrophils are from release from peripheral tissues, whereas loss of lymphocytes is due to induction of apoptosis. Differential white blood cell counts were studied in all Phase 1 MAD subjects. […]
placebo. White blood cells and subsets (lymphocytes, neutrophils, eosinophils) were measured at screening, day -1, pre-dose on days 1-14, day 17, and at follow-up (recovery). Day 1 (pre-dose), Day 2 (24 hr after first dose), Day 14 and follow-up (recovery) time points are graphed […]

[1] = MAD 1.0 mg/kg, Day 1 predose, baseline
[2] = MAD 1.0 mg/kg, Day 17 (3 days after last dose)
[3] = MAD 1.0 mg/kg, Day 21 follow-up
[4] = MAD 1.0 mg/kg, Day -1, baseline
[5] = MAD 1.0 mg/kg, Screening, baseline
[6] = MAD 3.0 mg/kg, Day 1 predose, baseline
[7] = MAD 3.0 mg/kg, Day 17 (3 days after last dose)
[8] = MAD 3.0 mg/kg, Day 21 follow-up
[9] = MAD 3.0 mg/kg, Day -1, baseline
[10] = MAD 3.0 mg/kg, Screening, baseline
[11] = MAD 9.0 mg/kg, Day 1 predose, baseline
[12] = MAD 9.0 mg/kg, Day 17 (3 days after last dose)
[13] = MAD 9.0 mg/kg, Day 21 follow-up
[14] = MAD 9.0 mg/kg, Day -1, baseline
[15] = MAD 9.0 mg/kg, Screening, baseline
[16] = MAD 20.0 mg/kg, Day 1 predose, baseline
[17] = MAD 20.0 mg/kg, Day 17 (3 days after last dose)
[18] = MAD 20.0 mg/kg, Day 21 follow-up
[19] = MAD 20.0 mg/kg, Day -1, baseline
[20] = MAD 20.0 mg/kg, Screening, baseline

C[C@@H]1C[C@H]2[C@@H]3CCC4=CC(=O)C=C[C@]4(C)C3=CC[C@]2(C)[C@@]1(O)C(=O)CO [vamorolone]
Eosinophils [1]: 0.17 10^9/L | Lymphocytes [1]: 1.9 ± 0.4 | Neutrophil cell counts [1]: 2.8 ± 1.0 | White blood cells counts [1]: 5.2 ± 1.0 | Eosinophils (MAD 1.0 mg/kg, Day 2 predose): 0.17 10^9/L | Lymphocytes (MAD 1.0 mg/kg, Day 2 predose): 1.8 ± 0.3 | Neutrophil cell counts (MAD 1.0 mg/kg, Day 2 predose): 3.0 ± 0.9 | White blood cells counts (MAD 1.0 mg/kg, Day 2 predose): 5.3 ± 0.9 | Eosinophils (MAD 1.0 mg/kg, Day 3 predose): 0.17 10^9/L | Lymphocytes (MAD 1.0 mg/kg, Day 3 predose): 2.1 ± 0.2 | Neutrophil cell counts (MAD 1.0 mg/kg, Day 3 predose): 2.8 ± 0.8 | White blood cells counts (MAD 1.0 mg/kg, Day 3 predose): 5.4 ± 0.8 | Eosinophils (MAD 1.0 mg/kg, Day 7 predose): 0.2 10^9/L | Lymphocytes (MAD 1.0 mg/kg, Day 7 predose): 2.1 ± 0.3 | Neutrophil cell counts (MAD 1.0 mg/kg, Day 7 predose): 3.1 ± 0.9 | White blood cells counts (MAD 1.0 mg/kg, Day 7 predose): 5.9 ± 0.7 | Eosinophils (MAD 1.0 mg/kg, Day 12 predose): 0.2 10^9/L | Lymphocytes (MAD 1.0 mg/kg, Day 12 predose): 2.3 ± 0.3 | Neutrophil cell counts (MAD 1.0 mg/kg, Day 12 predose): 3.2 ± 1.0 | White blood cells counts (MAD 1.0 mg/kg, Day 12 predose): 6.1 ± 0.9 | Eosinophils (MAD 1.0 mg/kg, Day 14 predose): 0.18 10^9/L | Lymphocytes (MAD 1.0 mg/kg, Day 14 predose): 2.3 ± 0.2 | Neutrophil cell counts (MAD 1.0 mg/kg, Day 14 predose): 3.0 ± 1.0 | White blood cells counts (MAD 1.0 mg/kg, Day 14 predose): 5.9 ± 0.9 | Eosinophils [2]: 0.17 10^9/L | Lymphocytes [2]: 2.1 ± 0.4 | Neutrophil cell counts [2]: 3.0 ± 0.8 | White blood cells counts [2]: 5.7 ± 0.6 | Eosinophils [3]: 0.15 10^9/L | Lymphocytes [3]: 2.0 ± 0.2 | Neutrophil cell counts [3]: 3.0 ± 0.6 | White blood cells counts [3]: 5.5 ± 0.7 | Eosinophils [4]: 0.18 10^9/L | Lymphocytes [4]: 2.1 ± 0.5 | Neutrophil cell counts [4]: 2.8 ± 0.9 | White blood cells counts [4]: 5.5 ± 0.8 | Eosinophils [5]: 0.13 10^9/L | Lymphocytes [5]: 1.8 ± 0.5 | Neutrophil cell counts [5]: 3.6 ± 2.0 | White blood cells counts [5]: 5.9 ± 2.2 | Eosinophils [6]: 0.23 10^9/L | Lymphocytes [6]: 1.8 ± 0.6 | Neutrophil cell counts [6]: 3.4 ± 1.3 | White blood cells counts [6]: 5.8 ± 2.0 | Eosinophils (MAD 3.0 mg/kg, Day 2 predose): 0.23 10^9/L | Lymphocytes (MAD 3.0 mg/kg, Day 2 predose): 2.0 ± 0.4 | Neutrophil cell counts (MAD 3.0 mg/kg, Day 2 predose): 3.4 ± 1.2 | White blood cells counts (MAD 3.0 mg/kg, Day 2 predose): 5.9 ± 1.5 | Eosinophils (MAD 3.0 mg/kg, Day 3 predose): 0.2 10^9/L | Lymphocytes (MAD 3.0 mg/kg, Day 3 predose): 2.1 ± 0.7 | Neutrophil cell counts (MAD 3.0 mg/kg, Day 3 predose): 3.4 ± 1.4 | White blood cells counts (MAD 3.0 mg/kg, Day 3 predose): 6.1 ± 2.2 | Eosinophils (MAD 3.0 mg/kg, Day 7 predose): 0.18 10^9/L | Lymphocytes (MAD 3.0 mg/kg, Day 7 predose): 2.4 ± 0.8 | Neutrophil cell counts (MAD 3.0 mg/kg, Day 7 predose): 3.3 ± 0.9 | White blood cells counts (MAD 3.0 mg/kg, Day 7 predose): 6.3 ± 2.0 | Eosinophils (MAD 3.0 mg/kg, Day 12 predose): 0.18 10^9/L | Lymphocytes (MAD 3.0 mg/kg, Day 12 predose): 2.1 ± 0.7 | Neutrophil cell counts (MAD 3.0 mg/kg, Day 12 predose): 3.2 ± 1.1 | White blood cells counts (MAD 3.0 mg/kg, Day 12 predose): 6.0 ± 2.0 | Eosinophils (MAD 3.0 mg/kg, Day 14 predose): 0.2 10^9/L | Lymphocytes (MAD 3.0 mg/kg, Day 14 predose): 2.2 ± 0.6 | Neutrophil cell counts (MAD 3.0 mg/kg, Day 14 predose): 3.0 ± 1.1 | White blood cells counts (MAD 3.0 mg/kg, Day 14 predose): 5.8 ± 1.8 | Eosinophils [7]: 0.17 10^9/L | Lymphocytes [7]: 2.0 ± 0.5 | Neutrophil cell counts [7]: 4.0 ± 1.1 | White blood cells counts [7]: 6.6 ± 1.6 | Eosinophils [8]: 0.18 10^9/L | Lymphocytes [8]: 1.8 ± 0.6 | Neutrophil cell counts [8]: 3.9 ± 1.4 | White blood cells counts [8]: 6.3 ± 1.6 | Eosinophils [9]: 0.2 10^9/L | Lymphocytes [9]: 1.9 ± 0.6 | Neutrophil cell counts [9]: 3.5 ± 1.4 | White blood cells counts [9]: 6.1 ± 1.9 | Eosinophils [10]: 0.18 10^9/L | Lymphocytes [10]: 2.0 ± 1.0 | Neutrophil cell counts [10]: 3.5 ± 1.8 | White blood cells counts [10]: 6.2 ± 2.9 | Eosinophils [11]: 0.1 10^9/L | Lymphocytes [11]: 1.8 ± 0.4 | Neutrophil cell counts [11]: 2.9 ± 0.9 | White blood cells counts [11]: 5.2 ± 1.1 | Eosinophils (MAD 9.0 mg/kg, Day 2 predose): 0.13 10^9/L | Lymphocytes (MAD 9.0 mg/kg, Day 2 predose): 2.5 ± 0.7 | Neutrophil cell counts (MAD 9.0 mg/kg, Day 2 predose): 3.7 ± 1.1 | White blood cells counts (MAD 9.0 mg/kg, Day 2 predose): 6.7 ± 1.2 | Eosinophils (MAD 9.0 mg/kg, Day 3 predose): 0.1 10^9/L | Lymphocytes (MAD 9.0 mg/kg, Day 3 predose): 2.7 ± 0.7 | Neutrophil cell counts (MAD 9.0 mg/kg, Day 3 predose): 3.6 ± 0.7 | White blood cells counts (MAD 9.0 mg/kg, Day 3 predose): 6.8 ± 1.0 | Eosinophils (MAD 9.0 mg/kg, Day 7 predose): 0.1 10^9/L | Lymphocytes (MAD 9.0 mg/kg, Day 7 predose): 2.6 ± 0.6 | Neutrophil cell counts (MAD 9.0 mg/kg, Day 7 predose): 3.4 ± 1.0 | White blood cells counts (MAD 9.0 mg/kg, Day 7 predose): 6.6 ± 1.3 | Eosinophils (MAD 9.0 mg/kg, Day 12 predose): 0.12 10^9/L | Lymphocytes (MAD 9.0 mg/kg, Day 12 predose): 2.8 ± 0.6 | Neutrophil cell counts (MAD 9.0 mg/kg, Day 12 predose): 3.5 ± 0.9 | White blood cells counts (MAD 9.0 mg/kg, Day 12 predose): 6.8 ± 0.9 | Eosinophils (MAD 9.0 mg/kg, Day 14 predose): 0.13 10^9/L | Lymphocytes (MAD 9.0 mg/kg, Day 14 predose): 2.6 ± 0.6 | Neutrophil cell counts (MAD 9.0 mg/kg, Day 14 predose): 3.6 ± 1.0 | White blood cells counts (MAD 9.0 mg/kg, Day 14 predose): 6.8 ± 1.3 | Eosinophils [12]: 0.08 10^9/L | Lymphocytes [12]: 1.9 ± 0.5 | Neutrophil cell counts [12]: 3.1 ± 0.7 | White blood cells counts [12]: 5.5 ± 0.7 | Eosinophils [13]: 0.12 10^9/L | Lymphocytes [13]: 1.8 ± 0.7 | Neutrophil cell counts [13]: 2.9 ± 1.0 | White blood cells counts [13]: 5.2 ± 1.1 | Eosinophils [14]: 0.12 10^9/L | Lymphocytes [14]: 2.1 ± 0.7 | Neutrophil cell counts [14]: 2.9 ± 0.6 | White blood cells counts [14]: 5.5 ± 1.1 | Eosinophils [15]: 0.1 10^9/L | Lymphocytes [15]: 1.7 ± 0.5 | Neutrophil cell counts [15]: 3.0 ± 1.0 | White blood cells counts [15]: 5.2 ± 1.3 | Eosinophils [16]: 0.28 10^9/L | Lymphocytes [16]: 2.2 ± 0.6 | Neutrophil cell counts [16]: 3.4 ± 1.1 | White blood cells counts [16]: 6.3 ± 1.4 | Eosinophils (MAD 20.0 mg/kg, Day 2 predose): 0.17 10^9/L | Lymphocytes (MAD 20.0 mg/kg, Day 2 predose): 2.9 ± 0.8 | Neutrophil cell counts (MAD 20.0 mg/kg, Day 2 predose): 4.5 ± 1.2 | White blood cells counts (MAD 20.0 mg/kg, Day 2 predose): 8.0 ± 1.3 | Eosinophils (MAD 20.0 mg/kg, Day 3 predose): 0.15 10^9/L | Lymphocytes (MAD 20.0 mg/kg, Day 3 predose): 2.9 ± 0.7 | Neutrophil cell counts (MAD 20.0 mg/kg, Day 3 predose): 4.3 ± 1.2 | White blood cells counts (MAD 20.0 mg/kg, Day 3 predose): 7.9 ± 0.7 | Eosinophils (MAD 20.0 mg/kg, Day 7 predose): 0.15 10^9/L | Lymphocytes (MAD 20.0 mg/kg, Day 7 predose): 3.2 ± 0.9 | Neutrophil cell counts (MAD 20.0 mg/kg, Day 7 predose): 4.4 ± 0.7 | White blood cells counts (MAD 20.0 mg/kg, Day 7 predose): 8.2 ± 1.0 | Eosinophils (MAD 20.0 mg/kg, Day 12 predose): 0.12 10^9/L | Lymphocytes (MAD 20.0 mg/kg, Day 12 predose): 3.2 ± 0.4 | Neutrophil cell counts (MAD 20.0 mg/kg, Day 12 predose): 4.4 ± 0.4 | White blood cells counts (MAD 20.0 mg/kg, Day 12 predose): 8.3 ± 0.5 | Eosinophils (MAD 20.0 mg/kg, Day 14 predose): 0.16 10^9/L | Lymphocytes (MAD 20.0 mg/kg, Day 14 predose): 3.1 ± 0.4 | Neutrophil cell counts (MAD 20.0 mg/kg, Day 14 predose): 4.6 ± 0.4 | White blood cells counts (MAD 20.0 mg/kg, Day 14 predose): 8.5 ± 0.4 | Eosinophils [17]: 0.16 10^9/L | Lymphocytes [17]: 2.2 ± 0.3 | Neutrophil cell counts [17]: 4.0 ± 0.3 | White blood cells counts [17]: 6.8 ± 0.2 | Eosinophils [18]: 0.26 10^9/L | Lymphocytes [18]: 2.2 ± 0.3 | Neutrophil cell counts [18]: 4.0 ± 0.3 | White blood cells counts [18]: 6.8 ± 0.4 | Eosinophils [19]: 0.32 10^9/L | Lymphocytes [19]: 2.6 ± 0.5 | Neutrophil cell counts [19]: 3.9 ± 1.1 | White blood cells counts [19]: 7.3 ± 1.1 | Eosinophils [20]: 0.25 10^9/L | Lymphocytes [20]: 2.0 ± 0.5 | Neutrophil cell counts [20]: 3.5 ± 1.2 | White blood cells counts [20]: 6.1 ± 1.1 | white blood cell counts (any MAD dose group): No significant changes
